# Key:
# normal mice = experiment: Effect of compound B on blood sugar in normal mice; format: in vivo; conditions: for Value of blood sugar: dose 100 mg/kg
# Description: The positive control group orally took tolbutol at 100 mg/kg. The blank control group took orally same distilled water. The volume of medicine given is 20 ml/kg, lasting 14 days. The test drug was administered (provided that they are pre-forbidden to give food 5 hrs before administration) after the days 1, 3, 7, 14 of administration. 3 hrs after administration, blood (10 ul) was taken from the eyepit. The content of dextrose in serum was measured by reagent box.
# Female SD rats = experiment: Effect on increasing blood sugar in rats caused by sucrose; format: in vivo, rat; conditions: for Value of blood sugar: dose 100 mg/kg
# Description: Female SD rats fasted for 24 hours and were randomly divided into several groups. […] The normal group, control group and blank group were given the same amount of water. The given medicine volume was […], after 30 minutes each group was given saccharose 1/kg(5 ml/kg) except the normal group, and blood was extracted from the eyes of rats after 30, 60 and 120 minutes respectively, the content of glucose in the serum was measured.
# [1] = system: Male Kun Ming strain mice; experiment: Effect of compound F on blood sugar elevation after oral dextrose; format: in vivo; conditions: dose 50 mg/kg oral, 7 days
# Description: Effect of compound F on blood sugar elevation in rat.
# Male Kun Ming strain mice are divided into randomly experimental groups, and they respectively took orally the compound F at […]. The positive control group took orally glybenclamide 50 mg/kg, and the blank control group and normal control group take orally the same distilled water. The volume of medicine given is 20 ml/kg, lasting 7 days. They are forbidden to give feedstuff 10 hours before the last time of administration. Each group is given 2.5 g/kg (10 ml/kg) dextrose solution except of normal control group. Before and after 30 minute of administration of dextrose, 100 ul of blood was sampled from the eyepit, and the content of dextrose in serum was measured by way of dextrose oxygenation enzyme.
# [2] = system: blood platelet aggregation in rabbits; experiment: Effect of compound B on blood platelet aggregation in rabbits in vitro (ADP); format: cell-based, rabbit
# Description: Blood was taken from rabbit heart by puncture, to which was added 3.8% potassium citrate for anticoagulation (1:9). Certification for 15 minute at 1000 rpm takes the upper layer as rich blood platelet plasma (prp), and then centrifugation for 10 minutes with 4000 rpm takes the supernatant as poor blood platelet plasma (ppp). […] 10 μl physiological brine of aspirin was added to a positive control tube, then it was put into a measuring cell after warming for 2 minutes at 37° C. 10 ul of physiological brine solution of ADP sodium salt was added with stirring. The final concentration is […]. The maximal aggregation ratio on PAM-1 type of blood platelet instrument was observed within 3 minutes.
# rabbit's blood platelets = experiment: Effect of compound F on aggregation of rabbit's blood platelets in vitro; format: cell-based
# Description: Effect of Compound F on Blood Platelet Aggregation in Rabbit
# Take blood from rabbit heart by puncturing, add 3.8% of potassium citrate for anticoagulation (1:9), centrifuge for 15 minutes at 1000 rpm, take the upper layer as blood platelet rich plasma (prp), and then centrifuge for 10 minutes at […], and take supematant as blood platelet poor plasma (ppp). The final concentration of compound F is respectively 250, 500, 1000 μg/ml, and the final concentration is respectively 250, 500, 1000 ug/ml. Add 10 ul of physical brine of aspirin to the positive-control tube to a final concentration of 250 μg/ml, and add 10 μl of physical brine to the control tube […]. Observe the maximal aggregation ratio on PAM-1 type instrument of blood platelet aggregation within 3 minute.
structure (smiles),measurement,setting,value
CCCCNC(=O)NS(=O)(=O)c1ccc(C)cc1 [tolbutol],Effect on blood sugar of normal mice (in words),"normal mice; Compound B 50, 100, 200 mg/kg for 14 days, tolbutol from day 3",obvious effect for lowering the blood sugar of normal mice
same,Value of blood sugar,normal mice; day 1,6.48 ± 1.18
same,Value of blood sugar,normal mice; day 3,5.22 ± 0.80
same,Value of blood sugar,normal mice; day 7,6.62 ± 0.96
same,Value of blood sugar,normal mice; day 14,5.75 ± 1.02
[H]/N=C(/N)N/C(=N/[H])NCCc1ccccc1 [phenformin],Effect on the increased value of blood sugar (in words),"Female SD rats; compound B 200 mg/kg, performing 100 mg/kg, within 30 minutes",reduce the increased value of blood sugar remarkably
same,Value of blood sugar,Female SD rats; 30 minutes after sucrose,4.24 ± 0.87 mmol/L
same,Value of blood sugar,Female SD rats; 60 minutes after sucrose,4.74 ± 0.90 mmol/L
same,Value of blood sugar,Female SD rats; 120 minutes after sucrose,4.79 ± 1.03 mmol/L
COc1ccc(Cl)cc1C(=O)NCCc1ccc(S(=O)(=O)NC(=O)NC2CCCCC2)cc1 [glybenclamide],Value of blood sugar,[1]; 0 minute (before dextrose),4.48 ± 0.83
same,Value of blood sugar,[1]; 30 minutes after dextrose,8.18 ± 1.72
"CC(=O)Oc1ccccc1C(=O)O [Aspirin, aspirin]",Inhibition of blood platelet aggregation (in words),"[2]; compound B 500, 1000 μg/ml, aspirin 250 μg/ml",obviously inhibit blood platelet from aggregating
same,Inhibition ratio,[2]; final concentration 250,50.3
same,Maximal aggregation ratio (%),"[2]; final concentration 250 (μg/ml), ADP, within 3 minutes",23.7 ± 6.0 %
same,inhibition at 250 µg/mL,"rabbit's blood platelets; Oryctolagus cuniculus, Platelet, final concentration 250 μg/ml, read-out: Inhibition rate (%)",50.3%
same,Inhibition of aggregation of blood platelet (in words),"rabbit's blood platelets; compound F 500, 1000 μg/ml, aspirin 250 μg/ml",obviously inhibit the aggregation of blood platelet
same,Maximal aggregation rate (%),"rabbit's blood platelets; final concentration 250 μg/ml, within 3 minute",23.7 ± 6.0 %

# Source: patent US6833443B1, “Gymnemic acid derivatives, process for the preparation thereof and use thereof as medicine” (Guilin Jiqi Pharmaceutical Co., Ltd., priority 1999, dated 2004)
